{
  "source": "patent US20150202304A1",
  "about": "“ENCAPSULATION OF IMMISCIBLE PHASES IN SILK FIBROIN BIOMATERIALS” (TUFTS UNIVERSITY, priority 2012, published 2015)",
  "test": "Release of adenosine from dissolvable silk films in PBS",
  "type": "physicochemical",
  "conditions": "within 15 minutes of exposure to 37° C. PBS; ~0.5, 0.25 or 0.125 mg adenosine per 0.2 mm^2 film",
  "procedure": "Rapid dissolution of films loaded with a dye and release of the dye from the films occur when the films are immersed in ˜37° C. buffer (FIG. 10). Dissolvable silk films loaded with an active agent (e.g., ˜0.5, 0.25 or 0.125 mg of adenosine per 0.2 mm^2 film) released the majority of the drug load (approx. 80%) within 15 minutes of exposure to 37° C. phosphate buffered saline (PBS) (Data not shown).",
  "data": [
    {"smiles": "Nc1ncnc2c1ncn2[C@@H]1O[C@H](CO)[C@@H](O)[C@H]1O", "note": "[adenosine]", "values": [
      {"measurement": "drug load released from dissolvable silk films", "result": "approx. 80%"}
    ]}
  ]
}
